Assay results from patent US10729132B2, “Xylophage control using antimethanogenic reagents” (Environmental Intellectual Property, Inc, priority 2015, dated 2020).

Legend:
[1] = system: F420-dependent NADP oxidoreductase enzyme from M. smithii; conditions: compared to the natural ligand F420; cited from earlier work
[2] = system: Archaea; test: Laboratory Study 5: methane concentration in control and test samples with AMRs
Method: Use of diallyl sulfide, which may be considered a synthetic garlic oil (GOS), was evaluated for its ability to control Archaea compared to the effects of other potential AMRs such as natural/pressed Garlic Oil (GO) and dehydrated Garlic Powder (GP). Control samples with and without contaminants were captured along with test samples that included contaminants and different concentrations (250 ppm and 500 ppm) of different AMRs (GO, GOS and GP). The concentration of methane in each of the samples was measured at 0, 9, 16 and 23 days.

| SMILES | affinity for the model protein [1] | length and magnitude of antimethanogenic responses ([2]; 500 ppm lasting longer than 250 ppm) | control response in terms of methane production ([2]; after 23 days incubation, 250 ppm and 500 ppm) |
| --- | --- | --- | --- |
| CC[C@H](C)C(=O)O[C@H]1CCC=C2C=C[C@H](C)[C@H](CC[C@@H]3C[C@@H](O)CC(=O)O3)[C@H]21 [compactin] | more affinity | – | – |
| C=CCSCC=C [GOS, diallyl sulfide] | – | concentration dependent | best control response |
| CC[C@H](C)C(=O)O[C@H]1C[C@@H](C)C=C2C=C[C@H](C)[C@H](CC[C@@H]3C[C@@H](O)CC(=O)O3)[C@H]21 [lovastatin] | more affinity | – | – |
